Assay results taken from paper PMC6437697 (Journal of Medicinal Chemistry, 2019).

Tests used:
Assay in all cases: KINOMEscan
Format in all cases: binding
Conditions in all cases: read-out: % control activity remaining
[1] = target: T1, ACVR2A (Homo sapiens, UniProt P27037)
T1 construct: purchased Eurofins DiscoverX KINOMEscan

[2] = target: T2, BRSK1 (Homo sapiens, UniProt Q8TDC3)
T2 construct: purchased Eurofins DiscoverX KINOMEscan
T2 sequence (Q8TDC3 1-778): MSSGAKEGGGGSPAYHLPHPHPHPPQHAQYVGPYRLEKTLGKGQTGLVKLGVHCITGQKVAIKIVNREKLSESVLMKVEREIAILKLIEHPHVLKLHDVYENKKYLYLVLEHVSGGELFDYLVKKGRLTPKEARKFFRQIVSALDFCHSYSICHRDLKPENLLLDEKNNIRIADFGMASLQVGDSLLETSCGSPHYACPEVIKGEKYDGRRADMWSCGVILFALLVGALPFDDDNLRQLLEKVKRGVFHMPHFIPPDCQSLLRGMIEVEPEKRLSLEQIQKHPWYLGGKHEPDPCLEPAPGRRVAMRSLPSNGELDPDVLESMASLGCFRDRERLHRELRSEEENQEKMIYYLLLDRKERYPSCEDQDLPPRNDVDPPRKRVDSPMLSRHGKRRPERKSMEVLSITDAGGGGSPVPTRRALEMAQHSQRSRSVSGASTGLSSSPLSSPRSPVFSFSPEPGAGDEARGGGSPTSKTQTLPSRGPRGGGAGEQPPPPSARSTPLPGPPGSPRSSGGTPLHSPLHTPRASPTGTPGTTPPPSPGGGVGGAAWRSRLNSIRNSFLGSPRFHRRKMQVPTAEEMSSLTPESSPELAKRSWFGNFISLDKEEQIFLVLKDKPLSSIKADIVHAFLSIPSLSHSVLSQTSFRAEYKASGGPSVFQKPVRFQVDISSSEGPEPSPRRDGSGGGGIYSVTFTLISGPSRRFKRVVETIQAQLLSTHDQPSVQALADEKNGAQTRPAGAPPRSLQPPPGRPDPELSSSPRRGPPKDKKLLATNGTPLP

[3] = target: T3, CAMK4 (Homo sapiens, UniProt Q16566)
T3 construct: purchased Eurofins DiscoverX KINOMEscan

[4] = target: T4, CIT (Homo sapiens, UniProt O14578)
T4 construct: purchased Eurofins DiscoverX KINOMEscan

[5] = target: T5, MAP3K2 (Homo sapiens, UniProt Q9Y2U5)
T5 construct: purchased Eurofins DiscoverX KINOMEscan
T5 sequence (Q9Y2U5 1-619): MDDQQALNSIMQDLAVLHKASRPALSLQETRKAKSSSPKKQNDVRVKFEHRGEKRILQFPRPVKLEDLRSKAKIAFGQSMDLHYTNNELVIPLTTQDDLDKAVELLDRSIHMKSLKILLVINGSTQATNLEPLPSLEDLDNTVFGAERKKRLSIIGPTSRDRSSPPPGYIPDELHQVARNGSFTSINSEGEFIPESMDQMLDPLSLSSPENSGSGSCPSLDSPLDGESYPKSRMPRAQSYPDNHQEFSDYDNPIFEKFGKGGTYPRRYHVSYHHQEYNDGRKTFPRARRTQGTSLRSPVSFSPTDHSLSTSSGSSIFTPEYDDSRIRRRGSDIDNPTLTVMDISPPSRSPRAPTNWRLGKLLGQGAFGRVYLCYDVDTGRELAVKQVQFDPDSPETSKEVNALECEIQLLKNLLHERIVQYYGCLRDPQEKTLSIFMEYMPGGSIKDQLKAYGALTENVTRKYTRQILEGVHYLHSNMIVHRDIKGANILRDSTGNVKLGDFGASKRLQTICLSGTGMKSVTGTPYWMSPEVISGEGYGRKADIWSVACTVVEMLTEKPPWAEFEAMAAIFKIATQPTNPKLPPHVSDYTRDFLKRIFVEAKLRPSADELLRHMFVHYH

[6] = target: T6, MET(M1250T) (Homo sapiens, UniProt P08581, M1250T)
T6 construct: purchased Eurofins DiscoverX KINOMEscan

[7] = target: T7, PIK3CA (Homo sapiens, UniProt P42336)
T7 construct: purchased Eurofins DiscoverX KINOMEscan

[8] = target: T8, TAOK3 (Homo sapiens, UniProt Q9H2K8)
T8 construct: purchased Eurofins DiscoverX KINOMEscan
T8 sequence (Q9H2K8 1-898): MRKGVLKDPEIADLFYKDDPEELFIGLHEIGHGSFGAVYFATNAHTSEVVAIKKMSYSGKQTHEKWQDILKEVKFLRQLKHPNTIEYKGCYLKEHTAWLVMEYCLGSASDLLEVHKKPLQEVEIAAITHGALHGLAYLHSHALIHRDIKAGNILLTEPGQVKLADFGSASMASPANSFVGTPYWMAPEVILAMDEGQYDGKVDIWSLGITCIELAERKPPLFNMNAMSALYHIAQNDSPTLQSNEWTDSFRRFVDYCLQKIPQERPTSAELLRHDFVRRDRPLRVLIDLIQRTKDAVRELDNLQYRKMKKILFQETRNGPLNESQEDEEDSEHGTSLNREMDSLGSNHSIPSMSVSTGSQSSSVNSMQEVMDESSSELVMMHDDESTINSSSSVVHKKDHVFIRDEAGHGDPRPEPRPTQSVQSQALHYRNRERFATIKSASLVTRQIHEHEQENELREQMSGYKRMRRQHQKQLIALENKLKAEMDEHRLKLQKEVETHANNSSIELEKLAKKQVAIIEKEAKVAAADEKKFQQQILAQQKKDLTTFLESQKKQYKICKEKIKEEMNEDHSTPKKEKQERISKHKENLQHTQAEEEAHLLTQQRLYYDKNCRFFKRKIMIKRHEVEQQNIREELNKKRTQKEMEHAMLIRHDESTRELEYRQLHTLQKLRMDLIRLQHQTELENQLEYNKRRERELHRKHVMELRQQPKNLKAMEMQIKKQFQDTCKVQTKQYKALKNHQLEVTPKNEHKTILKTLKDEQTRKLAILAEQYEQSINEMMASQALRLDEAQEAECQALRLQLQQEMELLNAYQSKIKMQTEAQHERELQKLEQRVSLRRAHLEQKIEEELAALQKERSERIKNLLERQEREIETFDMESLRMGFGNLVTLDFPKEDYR

T6 sequence (P08581 25-1390 M1250T): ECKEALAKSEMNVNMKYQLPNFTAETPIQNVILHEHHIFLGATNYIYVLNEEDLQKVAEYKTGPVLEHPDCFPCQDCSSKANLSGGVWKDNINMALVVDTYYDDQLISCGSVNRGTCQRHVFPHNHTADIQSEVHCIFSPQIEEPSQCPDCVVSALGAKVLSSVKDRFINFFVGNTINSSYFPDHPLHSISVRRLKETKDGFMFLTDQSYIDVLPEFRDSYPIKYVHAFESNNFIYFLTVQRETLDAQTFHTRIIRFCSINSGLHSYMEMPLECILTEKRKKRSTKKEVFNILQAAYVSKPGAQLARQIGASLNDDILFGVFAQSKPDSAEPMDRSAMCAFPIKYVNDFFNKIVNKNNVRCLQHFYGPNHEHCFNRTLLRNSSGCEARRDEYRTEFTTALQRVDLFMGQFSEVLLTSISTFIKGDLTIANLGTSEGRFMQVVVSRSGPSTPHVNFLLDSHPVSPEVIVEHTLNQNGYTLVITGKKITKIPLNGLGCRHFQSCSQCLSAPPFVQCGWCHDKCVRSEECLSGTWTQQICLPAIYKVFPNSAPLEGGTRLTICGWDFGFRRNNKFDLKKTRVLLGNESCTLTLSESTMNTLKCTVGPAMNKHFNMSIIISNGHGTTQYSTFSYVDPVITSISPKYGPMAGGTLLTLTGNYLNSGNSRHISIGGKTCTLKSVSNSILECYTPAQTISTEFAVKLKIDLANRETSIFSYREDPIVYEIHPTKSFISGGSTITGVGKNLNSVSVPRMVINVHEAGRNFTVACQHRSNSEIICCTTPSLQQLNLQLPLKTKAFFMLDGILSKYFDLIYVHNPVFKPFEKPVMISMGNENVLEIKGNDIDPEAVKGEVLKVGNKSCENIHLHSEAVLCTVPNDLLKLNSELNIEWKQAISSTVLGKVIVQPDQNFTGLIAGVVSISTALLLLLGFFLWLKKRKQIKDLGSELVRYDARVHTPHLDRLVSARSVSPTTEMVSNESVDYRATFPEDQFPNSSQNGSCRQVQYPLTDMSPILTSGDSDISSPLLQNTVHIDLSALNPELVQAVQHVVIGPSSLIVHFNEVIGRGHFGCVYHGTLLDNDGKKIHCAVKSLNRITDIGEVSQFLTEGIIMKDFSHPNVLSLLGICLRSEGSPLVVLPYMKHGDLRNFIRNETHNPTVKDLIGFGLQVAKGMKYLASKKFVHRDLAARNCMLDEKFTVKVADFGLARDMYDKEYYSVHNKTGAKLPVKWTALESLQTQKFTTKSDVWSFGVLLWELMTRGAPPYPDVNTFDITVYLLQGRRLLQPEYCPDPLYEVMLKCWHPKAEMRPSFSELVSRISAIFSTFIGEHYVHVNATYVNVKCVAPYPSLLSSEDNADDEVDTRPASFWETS
T7 sequence (P42336 whole entry): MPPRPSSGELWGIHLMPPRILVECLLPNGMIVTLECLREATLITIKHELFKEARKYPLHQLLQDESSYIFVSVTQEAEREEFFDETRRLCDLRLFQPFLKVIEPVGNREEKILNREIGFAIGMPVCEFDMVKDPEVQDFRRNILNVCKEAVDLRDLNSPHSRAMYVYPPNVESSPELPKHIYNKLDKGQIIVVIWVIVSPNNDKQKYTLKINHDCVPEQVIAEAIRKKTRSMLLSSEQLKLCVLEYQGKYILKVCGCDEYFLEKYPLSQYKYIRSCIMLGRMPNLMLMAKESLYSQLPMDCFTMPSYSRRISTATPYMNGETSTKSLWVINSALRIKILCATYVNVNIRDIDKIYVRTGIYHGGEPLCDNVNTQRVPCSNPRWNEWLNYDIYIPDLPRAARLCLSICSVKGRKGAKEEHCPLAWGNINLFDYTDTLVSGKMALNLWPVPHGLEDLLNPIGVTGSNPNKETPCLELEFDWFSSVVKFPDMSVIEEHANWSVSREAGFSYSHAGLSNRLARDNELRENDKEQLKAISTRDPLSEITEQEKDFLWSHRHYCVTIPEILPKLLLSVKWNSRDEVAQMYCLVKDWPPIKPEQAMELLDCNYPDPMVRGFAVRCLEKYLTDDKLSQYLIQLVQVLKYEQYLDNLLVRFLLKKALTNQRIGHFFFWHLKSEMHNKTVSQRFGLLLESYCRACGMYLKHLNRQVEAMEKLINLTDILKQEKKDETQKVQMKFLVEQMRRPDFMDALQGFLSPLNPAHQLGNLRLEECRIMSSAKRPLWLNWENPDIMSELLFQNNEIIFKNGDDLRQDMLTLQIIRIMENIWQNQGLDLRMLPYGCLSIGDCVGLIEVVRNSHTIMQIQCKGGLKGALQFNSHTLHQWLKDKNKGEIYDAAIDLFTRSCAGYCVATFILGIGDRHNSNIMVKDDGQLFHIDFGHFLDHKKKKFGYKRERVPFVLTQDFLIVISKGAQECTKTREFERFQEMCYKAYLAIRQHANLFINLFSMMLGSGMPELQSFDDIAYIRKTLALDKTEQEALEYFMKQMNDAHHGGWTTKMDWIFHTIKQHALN
T3 sequence (Q16566 whole entry, looked up): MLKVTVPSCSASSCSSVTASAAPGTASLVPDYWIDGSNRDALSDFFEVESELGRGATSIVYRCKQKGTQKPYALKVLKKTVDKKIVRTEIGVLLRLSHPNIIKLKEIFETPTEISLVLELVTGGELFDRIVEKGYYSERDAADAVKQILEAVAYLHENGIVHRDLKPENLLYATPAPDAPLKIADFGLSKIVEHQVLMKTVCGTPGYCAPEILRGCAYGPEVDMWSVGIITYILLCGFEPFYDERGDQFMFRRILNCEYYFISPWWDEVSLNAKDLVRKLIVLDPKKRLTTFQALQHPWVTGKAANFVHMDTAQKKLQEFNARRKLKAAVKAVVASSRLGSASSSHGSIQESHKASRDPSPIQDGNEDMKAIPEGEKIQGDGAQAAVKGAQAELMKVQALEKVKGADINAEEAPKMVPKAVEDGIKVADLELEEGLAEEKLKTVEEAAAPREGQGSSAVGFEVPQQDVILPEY
T1 sequence (P27037 20-513): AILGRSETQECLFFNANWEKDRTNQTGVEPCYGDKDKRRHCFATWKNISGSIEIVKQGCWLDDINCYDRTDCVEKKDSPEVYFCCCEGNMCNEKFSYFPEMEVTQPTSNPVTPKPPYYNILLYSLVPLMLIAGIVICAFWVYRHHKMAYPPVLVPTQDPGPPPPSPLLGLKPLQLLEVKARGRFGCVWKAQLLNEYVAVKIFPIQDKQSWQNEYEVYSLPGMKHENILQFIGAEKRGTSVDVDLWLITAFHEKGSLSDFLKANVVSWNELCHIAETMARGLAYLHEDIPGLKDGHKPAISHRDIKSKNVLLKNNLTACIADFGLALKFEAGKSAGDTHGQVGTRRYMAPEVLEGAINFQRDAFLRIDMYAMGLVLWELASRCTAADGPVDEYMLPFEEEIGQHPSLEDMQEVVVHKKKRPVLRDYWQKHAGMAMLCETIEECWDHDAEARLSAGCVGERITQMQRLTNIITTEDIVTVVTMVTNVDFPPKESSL

## Clc1cc(NCC2CC2)c2ncc(-c3ccc4[nH]ncc4c3)n2n1 [compound 2, 6-Chloro-N-(cyclopropylmethyl)-3-(1H-indazol-5-yl)imidazo[1,2-b]pyridazin-8-amine]
[1]
  remaining binding at 1 µM: 100%
[2]
  remaining binding at 1 µM: 96%
[3]
  remaining binding at 1 µM: 100%
[4]
  remaining binding at 1 µM: 73%
[5]
  remaining binding at 1 µM: 74%
[6]
  remaining binding at 1 µM: 89%
[7]
  remaining binding at 1 µM: 72%
[8]
  remaining binding at 1 µM: 92%

## O=C(CN1CCOCC1)N[C@H]1CC[C@H](Nc2cc(Cl)nn3c(-c4ccc5[nH]ncc5c4)cnc23)CC1 [compound 26]
[1]
  remaining binding at 1 µM: 100%
[2]
  remaining binding at 1 µM: 86%
[3]
  remaining binding at 1 µM: 100%
[4]
  remaining binding at 1 µM: 74%
[5]
  remaining binding at 1 µM: 100%
[6]
  remaining binding at 1 µM: 82%
[7]
  remaining binding at 1 µM: 97%
[8]
  remaining binding at 1 µM: 91%

## CN1CCC(CNc2cc(Cl)nn3c(-c4cc5nc(Nc6ccccc6)[nH]c5cc4F)cnc23)CC1 [compound 31, 6-Chloro-3-(6-fluoro-2-(phenylamino)-1H-benzo[d]imidazol-5-yl)-N-((1-methylpiperidin-4-yl)methyl)imidazo[1,2-b]pyridazin-8-amine]
[1]
  remaining binding at 1 µM: 97%
[2]
  remaining binding at 1 µM: 100%
[3]
  remaining binding at 1 µM: 100%
[4]
  remaining binding at 1 µM: 85%
[5]
  remaining binding at 1 µM: 62%
[6]
  remaining binding at 1 µM: 98%
[7]
  remaining binding at 1 µM: 90%
[8]
  remaining binding at 1 µM: 77%
